Consider 27 molecules from PubChem BioAssay AID1259408 (Genetic Toxicology Data Bank (GENE-TOX), 2018).

The subject of the data set is GENE-TOX genotoxicity assays, various organisms and cells. Nature of the data set: GENE-TOX mutagenicity studies. The settings on record: for call: Assay Type: In vivo carcinogenicity studies.
Where [1] appears, read: Species/Cell Type: Human lymphocytes, Assay Type: Sister-chromatid exchange (SCE) in vitro, Assay Code: SCL+D, Dose Response: With dose response, Evaluation Type: Evaluation B (Post-1980).
Setting [2] is: Species/Cell Type: Human, Assay Type: Sister-chromatid exchange (SCE) in vitro, Assay Code: SC1+D, Dose Response: With dose response, Evaluation Type: Evaluation B (Post-1980).
[3] abbreviates: Species/Cell Type: Bacillus subtilis (H17 vs M45), Assay Type: Rec-assay, spot test, DNA effects (bacterial DNA repair), Assay Code: REWT, Evaluation Type: Evaluation A (Pre-1980).
Where [4] appears, read: Species/Cell Type: Chinese hamster lung (V79) cells, Assay Type: Forward gene mutation at the HPRT or ouabain locus, Assay Code: V79+, Evaluation Type: Evaluation A (Pre-1980).
[5] abbreviates: Species/Cell Type: Drosophila melanogaster, Sex: Male, Assay Type: Heritable translocation test, chromosome aberrations, Assay Code: DHTT, Evaluation Type: Evaluation A (Pre-1980).
Where [6] appears, read: Species/Cell Type: Nonhuman, Assay Code: CCG+, Evaluation Type: Evaluation A (Pre-1980).
The mark [7] stands for this setting: Species/Cell Type: Salmonella typhimurium (one or more of the five standard strains: TA98, TA100, TA1535, TA1537, and TA1538), Assay Type: Histidine reverse gene mutation, Ames assay, Assay Code: SALT, Evaluation Type: Evaluation A (Pre-1980).
[8] abbreviates: Species/Cell Type: Salmonella typhimurium (one or more of the five standard strains: TA98, TA100, TA1535, TA1537, and TA1538), Assay Type: Histidine reverse gene mutation, Ames assay, Assay Code: SAL+*, Activation: With metabolic activation, Evaluation Type: Evaluation A (Pre-1980).
The mark [9] stands for this setting: Species/Cell Type: Syrian hamster embryo (SA7/SHE) cells, Assay Type: Cell transformation, viral enhanced, Assay Code: CT7-, Evaluation Type: Evaluation A (Pre-1980).
Where [10] appears, read: Species/Cell Type: Nonhuman, Assay Code: CCG+L, Evaluation Type: Evaluation A (Pre-1980).
The mark [11] stands for this setting: Species/Cell Type: Drosophila melanogaster, Assay Type: Sex-linked recessive lethal gene mutation, Assay Code: SRLT, Evaluation Type: Evaluation A (Pre-1980).
Setting [12] is: Species/Cell Type: Nonhuman, Assay Type: Sister-chromatid exchange (SCE) in vitro, Assay Code: SC2+D, Dose Response: With dose response, Evaluation Type: Evaluation B (Post-1980).
Setting [13] is: Species/Cell Type: Bacillus subtilis (H17 vs M45), Assay Type: Rec-assay, spot test, DNA effects (bacterial DNA repair), Assay Code: REW-, Evaluation Type: Evaluation A (Pre-1980).

Calls of active or inactive are those of the source. How the calls were made is not given here.

On to `O=C1OC2(c3cc(Br)c(O)cc3Oc3c2cc(Br)c(O)[c]3[Hg])c2ccccc21` (configuration not stated), for which the mutagenic call is “active; positive” (Species/Cell Type: Saccharomyces cerevisiae, Assay Type: Aneuploidy, chromosome aberrations, Assay Code: YEN+, Evaluation Type: Evaluation A (Pre-1980)) and “active; positive” (Species/Cell Type: Saccharomyces cerevisiae, Assay Type: Mitotic recombination or gene conversion, Assay Code: YEC+, Evaluation Type: Evaluation A (Pre-1980)).

Regarding `[Se]`, the mutagenic call was “active; positive” under setting [1] and “active; positive” under setting [2].

Turning to `O=S(=O)(O)c1ccc2c(N=Nc3cccc4ccccc34)c(O)c(S(=O)(=O)O)cc2c1`, under setting [3], the mutagenic call was “no conclusion”.

Consider `O=NN1CCOCC1`, for which the mutagenic call was “active; positive” under setting [4]; “active; positive” (Species/Cell Type: Drosophila melanogaster, Assay Type: Sex-linked recessive lethal gene mutation, Assay Code: SRL+, Evaluation Type: Evaluation A (Pre-1980)); “no conclusion” under setting [5]; “active; positive” (Species/Cell Type: Human lymphocytes or leukocytes, Assay Type: Chromosome aberrations in vivo, Assay Code: CY8+, Evaluation Type: Evaluation A (Pre-1980)); “active; positive” (Species/Cell Type: Mammalian polychromatic erythrocytes, Assay Type: Micronucleus test, chromosome aberrations, Assay Code: MNT+, Evaluation Type: Evaluation A (Pre-1980)); “inactive; negative” (Species/Cell Type: Mouse, Sex: Male, Assay Type: Sperm morphology, Assay Code: SPI-, Evaluation Type: Evaluation A (Pre-1980)). Moreover, the mutagenic call was “active; positive” (Species/Cell Type: Nonhuman lymphocytes or leukocytes, Assay Type: Chromosome aberrations in vivo, Assay Code: CY%+, Evaluation Type: Evaluation A (Pre-1980)); “active; positive” (Species/Cell Type: Nonhuman, Assay Type: Sister-chromatid exchange (SCE) in vitro, Assay Code: SC2+D*, Activation: With metabolic activation, Dose Response: With dose response, Evaluation Type: Evaluation B (Post-1980)); “active; positive” (Species/Cell Type: Nonhuman, Assay Type: Sister-chromatid exchange (SCE) in vivo, Assay Code: SC3+D, Dose Response: With dose response, Evaluation Type: Evaluation B (Post-1980)); “active; positive” (Species/Cell Type: Rat primary hepatocytes, Assay Type: Unscheduled DNA synthesis (UDS) in vitro, DNA effects, Assay Code: UDP+, Evaluation Type: Evaluation A (Pre-1980)); “no conclusion” under setting [7]; “active; positive” (Species/Cell Type: Salmonella typhimurium, Assay Type: Forward and reverse gene mutation, host-mediated assay, Assay Code: HMA+, Evaluation Type: Evaluation A (Pre-1980)). Moreover, the call under setting [6] was “active; positive”.

Take `C1=Cc2c(ccc3c2ccc2ccccc23)C1`: the mutagenic call under setting [8] is “active; positive”.

For the molecule `CC(C)O`, the mutagenic call reads like this: (Species/Cell Type: Neurospora crassa, Assay Type: Aneuploidy, chromosome aberrations, Assay Code: NEN-, Evaluation Type: Evaluation A (Pre-1980)) “inactive; negative”; under setting [9], “inactive; negative”.

Consider `CNC(C)C1CCC(N)C(OC2C(N)CC(N)C(OC3OCC(C)(O)C(NC)C3O)C2O)O1` (configuration not stated), for which the mutagenic call (Species/Cell Type: Saccharomyces cerevisiae, Assay Type: Mitotic recombination or gene conversion, Assay Code: YEH-, Evaluation Type: Evaluation A (Pre-1980)) is “inactive; negative”.

On to `CCN(CC)c1ccc2c(-c3ccc(S(=O)(=O)O)cc3S(=O)(=O)[O-])c3ccc(=[N+](CC)CC)cc-3oc2c1`, for which the mutagenic call is “no conclusion” under setting [3] and “no conclusion” (Species/Cell Type: Bacillus subtilis (H17 vs M45T), Assay Type: Rec-assay, spot test, DNA effects (bacterial DNA repair), Assay Code: REXT, Evaluation Type: Evaluation A (Pre-1980)).

For `Nc1ncnc2c1ncn2[C@@H]1O[C@H](CO)C[C@H]1O`, the mutagenic call is, setting by setting: (Species/Cell Type: Fischer rat embryo (RLV/1706) cells, Assay Type: Cell transformation, viral enhanced, Assay Code: CTR-, Evaluation Type: Evaluation A (Pre-1980)) “inactive; negative”; (Species/Cell Type: Nonhuman, Assay Type: Sister-chromatid exchange (SCE) in vitro, Assay Code: SC2T, Evaluation Type: Evaluation B (Post-1980)) “no conclusion”.

Turning to `OCc1c2ccccc2c(CO)c2c1ccc1ccccc12`, the mutagenic call (Species/Cell Type: Chinese hamster lung (V79) cells, Assay Type: Forward gene mutation at the HPRT or ouabain locus, Assay Code: V79-*, Activation: With metabolic activation, Evaluation Type: Evaluation A (Pre-1980)) is “inactive; negative”. Further, the call (Species/Cell Type: Nonhuman, Assay Code: CCGT, Evaluation Type: Evaluation A (Pre-1980)) is given as “no conclusion”.

As to `CC1(C)S[C@@H]2[C@H](NC(=O)[C@H](N)c3ccccc3)C(=O)N2[C@H]1C(=O)O`, under “Species/Cell Type: Escherichia coli polA (W3119 vs P3478), Assay Type: Rec-assay, DNA effects (bacterial DNA repair), Assay Code: RE1-, Evaluation Type: Evaluation A (Pre-1980)”, the mutagenic call is “inactive; negative”.

Consider `NCCc1c[nH]c2ccc(O)cc12` (tested in a mixture with another compound), for which the mutagenic call reads like this: (Species/Cell Type: Drosophila melanogaster, Assay Type: Aneuploidy, whole sex chromosome loss, chromosome aberrations, Assay Code: DACTM, Evaluation Type: Evaluation A (Pre-1980)) “no conclusion”; under setting [5], “no conclusion”.

For `O=[N+]([O-])c1cccc2ccccc12`, under “Species/Cell Type: Nonhuman, Assay Code: CCG-, Evaluation Type: Evaluation A (Pre-1980)”, the call was “inactive; negative”.

Consider `CCCCCCN(N=O)/C(N)=N/[N+](=O)[O-]`, for which the mutagenic call under setting [7] was “no conclusion”.

For `CCNC(=S)NCC`, the call under setting [10] was “active; positive”. Besides, the mutagenic call under setting [9] was “inactive; negative”.

Consider `COCCOC1=C(N2CC2)C(=O)C(OCCOC)=C(N2CC2)C1=O`, for which the mutagenic call is “no conclusion” under setting [11] and “active; positive” under setting [12].

For `[S]=[Cd]`, under “Species/Cell Type: Human lymphocytes or leukocytes, Assay Type: Chromosome aberrations in vitro, Assay Code: CY7+, Evaluation Type: Evaluation A (Pre-1980)”, the mutagenic call was “active; positive”. In addition, the call under setting [6] was “active; positive”.

Turning to `COc1ccccc1O`, the mutagenic call reads like this: (Species/Cell Type: Allium cepa, Assay Type: Chromosome aberrations, Assay Code: ALC+, Evaluation Type: Evaluation A (Pre-1980)) “active; positive”; under setting [1], “active; positive”; under setting [2], “active; positive”; under setting [7], “no conclusion”.

Consider `Cc1ccc2cc3c(ccc4ccccc43)c3c2c1C(=O)C3`, for which the mutagenic call by setting is: under setting [4], “active; positive”; under setting [8], “active; positive”. Further, the call under setting [10] was “active; positive”.

`COP(=S)(OC)Oc1ccc([N+](=O)[O-])c(C)c1`: the mutagenic call is “no conclusion” under setting [11]; “active; positive” (Species/Cell Type: Human, Assay Type: Sister-chromatid exchange (SCE) in vitro, Assay Code: SC1+, Evaluation Type: Evaluation B (Post-1980)); “no conclusion” (Species/Cell Type: Mammalian polychromatic erythrocytes, Assay Type: Micronucleus test, chromosome aberrations, Assay Code: MNTT, Evaluation Type: Evaluation B (Post-1980)); “inactive; negative” (Species/Cell Type: Rodents, Sex: Male, Assay Type: Dominant lethal test, Assay Code: DLT-, Evaluation Type: Evaluation A (Pre-1980)); “inactive; negative” (Species/Cell Type: Salmonella typhimurium, Assay Type: Forward and reverse gene mutation, host-mediated assay, Assay Code: HMA-, Evaluation Type: Evaluation A (Pre-1980)).

Regarding `CC1=C(/C=C/C(C)=C/C=C/C(C)=C/COc2ccccc2)C(C)(C)CCC1`, the mutagenic call under setting [2] is “active; positive”.

Take `C=C1C/C(=C/C)C(=O)O[C@@H]2CCN3CC=C(COC(=O)[C@]1(C)O)[C@H]23`: the mutagenic call under setting [12] was “active; positive”.

With `Cc1ccc2c(ccc3c4c(ccc32)C(=O)CC4)c1`, the mutagenic call under setting [7] is listed as “no conclusion”.

As for `[Li+]`, the mutagenic call was “inactive; negative” under setting [13] and “inactive; negative” under setting [9].

With `COCCOC(C)=O`, under “Species/Cell Type: Mammalian polychromatic erythrocytes, Assay Type: Micronucleus test, chromosome aberrations, Assay Code: MNT-, Evaluation Type: Evaluation B (Post-1980)”, the mutagenic call is “inactive; negative”.

For the molecule `ONc1ccc2c(c1)Cc1ccccc1-2`, the mutagenic call by setting is: under setting [11], “no conclusion”; (Species/Cell Type: Escherichia coli polA (W3119 vs P3478), Assay Type: Rec-assay, DNA effects (bacterial DNA repair), Assay Code: RE1+, Evaluation Type: Evaluation A (Pre-1980)) “active; positive”; (Species/Cell Type: Salmonella typhimurium (one or more of the five standard strains: TA98, TA100, TA1535, TA1537, and TA1538), Assay Type: Histidine reverse gene mutation, Ames assay, Assay Code: SAL+, Evaluation Type: Evaluation A (Pre-1980)) “active; positive”.

For the molecule `Cc1cc(O)c2c(c1)C(=O)c1cc(O)cc(O)c1C2=O`, the mutagenic call runs as follows: under setting [13], “inactive; negative”; (Species/Cell Type: Escherichia coli polA (W3119 vs P3478), Assay Type: Rec-assay, DNA effects (bacterial DNA repair), Assay Code: RE1T, Evaluation Type: Evaluation A (Pre-1980)) “no conclusion”.
